Here are results for eight compounds from patent publication US10004701B2, “Methods and compositions for treating infection” (UNIVERSITY OF ROCHESTER, priority 2012, dated 2018).

Holding throughout (assay): AK assay 384-well format, Prestwick library screening
One test concerns E. faecium. Type of test: cell-based, Enterococcus faecium. Particulars: 50 μM final drug concentration; for fold induction at 50 µM: Enterococcus faecium, 3 h.
The test system of test [1] is S. aureus strain USA300-0114. The test is classed as cell-based, Staphylococcus aureus. Particulars: 50 μM final drug concentration; for fold induction at 50 µM: Staphylococcus aureus, USA300, 3 h.
In a further test the test system is K. pneumoniae. The test is classed as cell-based, Klebsiella pneumoniae. Particulars: 50 μM final drug concentration; for fold induction at 50 µM: Klebsiella pneumoniae, 3 h.
Test [2] deals with A. baumannii strain 98-37-09. The test is classed as cell-based, Acinetobacter baumannii. The following applies: 50 μM final drug concentration; for fold induction at 50 µM: Acinetobacter baumannii, 983709, 3 h.
For a further test, the system named is P. aeruginosa. The test is classed as cell-based, Pseudomonas aeruginosa. Particulars: 50 μM final drug concentration; for fold induction at 50 µM: Pseudomonas aeruginosa, 3 h.
The next test concerns E. cloacae. Type of test: cell-based, Enterobacter cloacae. The following applies: 50 μM final drug concentration; for fold induction at 50 µM: Enterobacter cloacae, 3 h.
For a further test, the system named is E. coli. Type of test: cell-based, Escherichia coli. Particulars: 50 μM final drug concentration; for fold induction at 50 µM: Escherichia coli, 3 h.
The mark [3] stands for this setting: 384-well format, cutoff for positive-scoring molecules 3-fold increase.

Structures can show the parent of a compound that is named as a salt. Where two headings read alike, the source gives them in different places.

As to `O=C(O)/C=C/c1ccc(O)c(O)c1` [Caffeic acid], the fold induction at 50 µM came out at 0.9 in the test with E. faecium (planktonic, cutoff for positive-scoring molecules 3-fold increase, read-out: AK-based Prestwick Library Screening Results, E. faecium (fold increase in extracellular AK activity)); 0.8 in test [1] (planktonic, cutoff for positive-scoring molecules 3-fold increase, read-out: AK-based Prestwick Library Screening Results, S. aureus (fold increase in extracellular AK activity)); 0.8 in the test with K. pneumoniae (planktonic, cutoff for positive-scoring molecules 3-fold increase, read-out: AK-based Prestwick Library Screening Results, K. pneumoniae (fold increase in extracellular AK activity)); 0.8 in test [2] (planktonic, cutoff for positive-scoring molecules 3-fold increase, read-out: AK-based Prestwick Library Screening Results, A. baumannii (fold increase in extracellular AK activity)); 0.9 in the test with P. aeruginosa (planktonic, cutoff for positive-scoring molecules 3-fold increase, read-out: AK-based Prestwick Library Screening Results, P. aeruginosa (fold increase in extracellular AK activity)); 1 in the test on E. cloacae (planktonic, cutoff for positive-scoring molecules 3-fold increase, read-out: AK-based Prestwick Library Screening Results, E. cloacae (fold increase in extracellular AK activity)). Moreover, the fold induction at 50 µM in the test on E. coli (planktonic, cutoff for positive-scoring molecules 3-fold increase, read-out: AK-based Prestwick Library Screening Results, E. coli (fold increase in extracellular AK activity)) is 1.

Regarding `C=C1CC[C@H](O)C/C1=C/C=C1\CCC[C@]2(C)[C@@H]([C@H](C)/C=C/[C@H](C)C(C)C)CC[C@@H]12` [Calciferol], the fold induction at 50 µM with E. faecium (planktonic E. faecium, cutoff for positive-scoring molecules 3-fold increase, read-out: AK-based Prestwick Library Screening Results, E. faecium (increase in extracellular AK activity)) amounted to 0.9; in test [1] (planktonic S. aureus, cutoff for positive-scoring molecules 3-fold increase, read-out: AK-based Prestwick Library Screening Results, S. aureus (increase in extracellular AK activity)), 0.5; in the test on K. pneumoniae (planktonic K. pneumoniae, cutoff for positive-scoring molecules 3-fold increase, read-out: AK-based Prestwick Library Screening Results, K. pneumoniae (increase in extracellular AK activity)), 0.7; in test [2] (planktonic A. baumannii, cutoff for positive-scoring molecules 3-fold increase, read-out: AK-based Prestwick Library Screening Results, A. baumannii (increase in extracellular AK activity)), 0.7; with P. aeruginosa (planktonic P. aeruginosa, cutoff for positive-scoring molecules 3-fold increase, read-out: AK-based Prestwick Library Screening Results, P. aeruginosa (increase in extracellular AK activity)), 0.7; with E. cloacae (planktonic E. cloacae, cutoff for positive-scoring molecules 3-fold increase, read-out: AK-based Prestwick Library Screening Results, E. cloacae (increase in extracellular AK activity)), 0.7. Moreover, the fold induction at 50 µM with E. coli (planktonic E. coli, cutoff for positive-scoring molecules 3-fold increase, read-out: AK-based Prestwick Library Screening Results, E. coli (increase in extracellular AK activity)) turned out to be 0.8.

Regarding `CN1CC[C@]23c4ccccc4N[C@H]1[C@]21CCN(C)[C@H]3Nc2ccccc21` [Calycanthine], the “AK-based Prestwick Library Screening Results, E. faecium (increase in extracellular AK activity)” value in the test on E. faecium (planktonic E. faecium, […]) is 0.8. In addition, the “AK-based Prestwick Library Screening Results, S. aureus (increase in extracellular AK activity)” value in test [1] (planktonic S. aureus, […]) stood at 0.6. Also, in the test on K. pneumoniae (planktonic K. pneumoniae, […]), the “AK-based Prestwick Library Screening Results, K. pneumoniae (increase in extracellular AK activity)” value is on record as 0.7. Moreover, the “AK-based Prestwick Library Screening Results, A. baumannii (increase in extracellular AK activity)” value in test [2] (planktonic A. baumannii, […]) turned out to be 0.8. Besides, the “AK-based Prestwick Library Screening Results, P. aeruginosa (increase in extracellular AK activity)” value with P. aeruginosa (planktonic P. aeruginosa, […]) is 0.8. In the test on E. cloacae (planktonic E. cloacae, […]), the “AK-based Prestwick Library Screening Results, E. cloacae (increase in extracellular AK activity)” value stood at 1.2. The “AK-based Prestwick Library Screening Results, E. coli (increase in extracellular AK activity)” value in the test with E. coli (planktonic E. coli, […]) is 0.9.

Consider `CC[C@@]1(O)C(=O)OCc2c1cc1n(c2=O)Cc2cc3ccccc3nc2-1` [Camptothecine (S,+)], for which, in the test with E. faecium (setting [3]), the “AK-based Prestwick Library Screening Results, E. faecium (increase in extracellular AK activity)” value came out at 0.9. Further, in test [1] (setting [3]), the “AK-based Prestwick Library Screening Results, S. aureus (increase in extracellular AK activity)” value is recorded as 0.7. In addition, in the test with K. pneumoniae (setting [3]), the “AK-based Prestwick Library Screening Results, K. pneumoniae (increase in extracellular AK activity)” value turned out to be 0.8. Moreover, in test [2] (setting [3]), the “AK-based Prestwick Library Screening Results, A. baumannii (increase in extracellular AK activity)” value turned out to be 0.8. The “AK-based Prestwick Library Screening Results, P. aeruginosa (increase in extracellular AK activity)” value with P. aeruginosa (setting [3]) was determined as 0.8. In addition, the “AK-based Prestwick Library Screening Results, E. cloacae (increase in extracellular AK activity)” value with E. cloacae (setting [3]) was determined as 1.1. The “AK-based Prestwick Library Screening Results, E. coli (increase in extracellular AK activity)” value with E. coli (setting [3]) came out at 0.9.

As to `NC(N)=NOCC[C@H](N)C(=O)O.O.O=S(=O)(O)O` [Canavanine sulfate monohydrate (L,+)], the “AK-based Prestwick Library Screening Results, E. faecium (fold increase in extracellular AK activity)” value in the test with E. faecium (planktonic, […]) was 1.1. The “AK-based Prestwick Library Screening Results, S. aureus (fold increase in extracellular AK activity)” value in test [1] (planktonic, […]) was 1.6. Moreover, in the test on K. pneumoniae (planktonic, […]), the “AK-based Prestwick Library Screening Results, K. pneumoniae (fold increase in extracellular AK activity)” value is listed as 0.9. For the same compound, in test [2] (planktonic, […]), the “AK-based Prestwick Library Screening Results, A. baumannii (fold increase in extracellular AK activity)” value was 1.1. Further, the “AK-based Prestwick Library Screening Results, P. aeruginosa (fold increase in extracellular AK activity)” value with P. aeruginosa (planktonic, […]) was determined as 1.1. Besides, in the test with E. cloacae (planktonic, […]), the “AK-based Prestwick Library Screening Results, E. cloacae (fold increase in extracellular AK activity)” value was determined as 1.4. In addition, in the test on E. coli (planktonic, […]), the “AK-based Prestwick Library Screening Results, E. coli (fold increase in extracellular AK activity)” value came out at 1.2.

In the case of `C[C@]12CCC(=O)C=C1C=C[C@@H]1[C@@H]2CC[C@@]2(C)[C@H]1CC[C@@]2(O)CCC(=O)O` [Canrenoic acid potassium salt], the fold induction at 50 µM was 1 in the test with E. faecium (planktonic E. faecium, 384-well, cutoff for positive-scoring molecules 3-fold increase, read-out: AK-based Prestwick Library Screening Results: E. faecium (increase in extracellular AK activity)); 1.1 in test [1] (planktonic S. aureus, 384-well, cutoff for positive-scoring molecules 3-fold increase, read-out: AK-based Prestwick Library Screening Results: S. aureus (increase in extracellular AK activity)); 0.9 in the test on K. pneumoniae (planktonic K. pneumoniae, 384-well, cutoff for positive-scoring molecules 3-fold increase, read-out: AK-based Prestwick Library Screening Results: K. pneumoniae (increase in extracellular AK activity)); 1.5 in test [2] (planktonic A. baumannii, 384-well, cutoff for positive-scoring molecules 3-fold increase, read-out: AK-based Prestwick Library Screening Results: A. baumannii (increase in extracellular AK activity)); 1.3 in the test on P. aeruginosa (planktonic P. aeruginosa, 384-well, cutoff for positive-scoring molecules 3-fold increase, read-out: AK-based Prestwick Library Screening Results: P. aeruginosa (increase in extracellular AK activity)); 1.2 in the test with E. cloacae (planktonic E. cloacae, 384-well, cutoff for positive-scoring molecules 3-fold increase, read-out: AK-based Prestwick Library Screening Results: E. cloacae (increase in extracellular AK activity)). The fold induction at 50 µM in the test on E. coli (planktonic E. coli, 384-well, cutoff for positive-scoring molecules 3-fold increase, read-out: AK-based Prestwick Library Screening Results: E. coli (increase in extracellular AK activity)) was determined as 1.4.

For `C[C@@]12C(=O)OC(=O)[C@]1(C)[C@H]1CC[C@@H]2O1` [Cantharidin], the fold induction at 50 µM in the test with E. faecium (planktonic, […], read-out: AK-based Prestwick Library Screening Results, E. faecium (fold increase in extracellular AK activity)) was determined as 0.8; in test [1] (planktonic, […], read-out: AK-based Prestwick Library Screening Results, S. aureus (fold increase in extracellular AK activity)), 0.5; in the test on K. pneumoniae (planktonic, […], read-out: AK-based Prestwick Library Screening Results, K. pneumoniae (fold increase in extracellular AK activity)), 0.6; in test [2] (planktonic, […], read-out: AK-based Prestwick Library Screening Results, A. baumannii (fold increase in extracellular AK activity)), 0.5; in the test on P. aeruginosa (planktonic, […], read-out: AK-based Prestwick Library Screening Results, P. aeruginosa (fold increase in extracellular AK activity)) it was 0.5; in the test on E. cloacae (planktonic, […], read-out: AK-based Prestwick Library Screening Results, E. cloacae (fold increase in extracellular AK activity)) it was 0.6. Moreover, in the test on E. coli (planktonic, […], read-out: AK-based Prestwick Library Screening Results, E. coli (fold increase in extracellular AK activity)), the fold induction at 50 µM was found to be 0.6.

Regarding `COc1cc(CNC(=O)CCCC/C=C/C(C)C)ccc1O` [Capsaicin], the fold induction at 50 µM in the test with E. faecium (cutoff for positive-scoring molecules 3-fold increase, read-out: AK-based Prestwick Library Screening Results, E. faecium (fold increase in extracellular AK activity)) is 1.1; in test [1] (cutoff for positive-scoring molecules 3-fold increase, read-out: AK-based Prestwick Library Screening Results, S. aureus (fold increase in extracellular AK activity)), 1.2; with K. pneumoniae (cutoff for positive-scoring molecules 3-fold increase, read-out: AK-based Prestwick Library Screening Results, K. pneumoniae (fold increase in extracellular AK activity)), 1; in test [2] (cutoff for positive-scoring molecules 3-fold increase, read-out: AK-based Prestwick Library Screening Results, A. baumannii (fold increase in extracellular AK activity)), 1.2; in the test on P. aeruginosa (cutoff for positive-scoring molecules 3-fold increase, read-out: AK-based Prestwick Library Screening Results, P. aeruginosa (fold increase in extracellular AK activity)), 1.1; in the test with E. cloacae (cutoff for positive-scoring molecules 3-fold increase, read-out: AK-based Prestwick Library Screening Results, E. cloacae (fold increase in extracellular AK activity)), 1.5. The fold induction at 50 µM with E. coli (cutoff for positive-scoring molecules 3-fold increase, read-out: AK-based Prestwick Library Screening Results, E. coli (fold increase in extracellular AK activity)) turned out to be 1.3.
